Values of other authors as cited in patent US20090214446A1, “CYCLODEXTRIN INCLUSION COMPLEXES AND METHODS OF PREPARING SAME” (CARGILL, INCORPORATED, priority 2005, published 2009).

Conditions: octanol/water

Row | SMILES | log P
1 | CCc1occc(=O)c1O [ethyl maltol] | 0.30
2 | CC(=O)C(C)=O [diacetyl] | −1.34
3 | C=C(C)[C@H]1CC=C(C)CC1 [limonene] | 4.83
